Assay results reported in patent publication US12410171B2, “Tropomyosin receptor kinase (TRK) degradation compounds and methods of use” (Cullgen (Shanghai), Inc., priority 2020, dated 2025).

These compounds were tested against T1, TPM3-TRKA fusion protein (Homo sapiens, UniProt P04629) (assay: TPM3-TRKA fusion protein levels in KM12 cells (Western blot)). Details: 16 h; TPM3-TRKA degradation in KM12 cells at 10 nM compound, category of percentage degradation; read-out: Degradation (at 10 nM).
T1 construct: The resulted chimeric proteins always retain the kinase domain of TRK proteins; TPM3 (fusion partner, N-terminal part of tropomyosin alpha-3, P06753); endogenous in cells; host or cells: KM12 colon cancer cells; the other entry of the earlier key: TPM3 (P06753, Tropomyosin alpha-3 chain)
Type: cell-based
How it was run: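 KM12 colon cancer cells were treated with DMSO or compounds at 0.1–100 nM, 0.4–30 nM or other stated concentrations for 4, 8–16 or 16 h. RIPA lysates were BCA-normalized and resolved by SDS-PAGE. TPM3-TRKA was detected by chemiluminescent Western blot, with bands quantified by densitometry.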

T1 sequence (P04629 with tags, fused parts or gaps): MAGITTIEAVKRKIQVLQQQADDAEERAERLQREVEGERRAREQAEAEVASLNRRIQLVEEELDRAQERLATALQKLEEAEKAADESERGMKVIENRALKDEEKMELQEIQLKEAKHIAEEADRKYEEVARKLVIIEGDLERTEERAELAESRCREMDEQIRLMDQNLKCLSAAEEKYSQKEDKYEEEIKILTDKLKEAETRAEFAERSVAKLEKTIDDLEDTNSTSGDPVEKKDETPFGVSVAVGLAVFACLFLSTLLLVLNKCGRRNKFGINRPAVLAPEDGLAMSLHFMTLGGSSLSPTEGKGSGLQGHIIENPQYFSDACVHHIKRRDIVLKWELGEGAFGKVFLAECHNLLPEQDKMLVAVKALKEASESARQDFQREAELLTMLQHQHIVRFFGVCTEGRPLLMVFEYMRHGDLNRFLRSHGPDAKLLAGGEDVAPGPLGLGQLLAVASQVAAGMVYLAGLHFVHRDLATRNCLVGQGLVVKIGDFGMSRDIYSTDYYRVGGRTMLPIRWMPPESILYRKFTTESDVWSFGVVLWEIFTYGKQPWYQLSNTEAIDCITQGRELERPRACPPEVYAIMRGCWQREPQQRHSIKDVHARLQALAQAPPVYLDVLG

Row | SMILES | percent degradation of TPM3-TRKA protein at 0.01 µM [%]
1 | O=C(CN1CCN(c2cccc(-c3cnc4ccc(N5CCC[C@@H]5c5cccc(F)c5)nn34)n2)CC1)NCCOCCOCCOCCOCCOCCNc1ccc2c(c1)C(=O)N(C1CCC(=O)NC1=O)C2=O (stereo partly drawn) [TR-132, N-(17-((2-(2,6-dioxopiperidin-3-yl)-1,3-dioxoisoindolin-5-yl)amino)-3,6,9,12,15-pentaoxaheptadecyl)-2-(4-(6-(6-((R)-2-(3-fluorophenyl)pyrrolidin-1-yl)imidazo[1,2-b]pyridazin-3-yl)pyridin-2-yl)piperazin-1-yl)acetamide] | > 80
2 | O=C(CN1CCN(c2cccc(-c3cnc4ccc(N5CCC[C@@H]5c5cccc(F)c5)nn34)n2)CC1)NCCOCCOCCNc1ccc2c(c1)C(=O)N(C1CCC(=O)NC1=O)C2=O (stereo partly drawn) [TR-134, N-(2-(2-(2-((2-(2,6-dioxopiperidin-3-yl)-1,3-dioxoisoindolin-5-yl)amino)ethoxy)ethoxy)ethyl)-2-(4-(6-(6-((R)-2-(3-fluorophenyl)pyrrolidin-1-yl)imidazo[1,2-b]pyridazin-3-yl)pyridin-2-yl)piperazin-1-yl)acetamide] | > 80
3 | O=C1CCC(N2C(=O)c3ccc(NCCOCCOCCOCCOCCOCCC(=O)N4CCN(c5ccc(C(=O)Nc6n[nH]c7ccc(Cc8cc(F)cc(F)c8)cc67)c(NC6CCOCC6)c5)CC4)cc3C2=O)C(=O)N1 (stereo not drawn) [TR-137, N-(5-(3,5-Difluorobenzyl)-1H-indazol-3-yl)-4-(4-(1-((2-(2,6-dioxopiperidin-3-yl)-1,3-dioxoisoindolin-5-yl)amino)-3,6,9, 12, 15-pentaoxaoctadecan-18-oyl)piperazin-1-yl)-2-((tetrahydro-2H-pyran-4-yl)amino)benzamide] | > 80
4 | O=C1CCC(N2C(=O)c3ccc(NCCOCCOCCC(=O)N4CCN(c5ccc(C(=O)Nc6n[nH]c7ccc(Cc8cc(F)cc(F)c8)cc67)c(NC6CCOCC6)c5)CC4)cc3C2=O)C(=O)N1 (stereo not drawn) [TR-141, N-(5-(3,5-Difluorobenzyl)-1H-indazol-3-yl)-4-(4-(3-(2-(2-((2-(2,6-dioxopiperidin-3-yl)-1,3-dioxoisoindolin-5-yl)amino)ethoxy)ethoxy)propanoyl)piperazin-1-yl)-2-((tetrahydro-2H-pyran-4-yl)amino)benzamide] | > 80
5 | O=C1CCC(N2C(=O)c3ccc(NCCCCC(=O)N4CCN(c5ccc(C(=O)Nc6n[nH]c7ccc(Cc8cc(F)cc(F)c8)cc67)c(NC6CCOCC6)c5)CC4)cc3C2=O)C(=O)N1 (stereo not drawn) [TR-142, N-(5-(3,5-Difluorobenzyl)-1H-indazol-3-yl)-4-(4-(5-((2-(2,6-dioxopiperidin-3-yl)-1,3-dioxoisoindolin-5-yl)amino)pentanoyl)piperazin-1-yl)-2-((tetrahydro-2H-pyran-4-yl)amino)benzamide] | > 80
6 | O=C1CCC(N2C(=O)c3ccc(NCCOCCC(=O)N4CCN(c5ccc(C(=O)Nc6n[nH]c7ccc(Cc8cc(F)cc(F)c8)cc67)c(NC6CCOCC6)c5)CC4)cc3C2=O)C(=O)N1 (stereo not drawn) [TR-143] | > 80
7 | O=C1CCC(N2C(=O)c3ccc(NCC(=O)N4CCN(c5ccc(C(=O)Nc6n[nH]c7ccc(Cc8cc(F)cc(F)c8)cc67)c(NC6CCOCC6)c5)CC4)cc3C2=O)C(=O)N1 (stereo not drawn) [TR-144, N-(5˜ (3,5-Difluorobenzyl)-1H-indazol-3-yl)-4-(4-((2˜ (2,6-dioxopiperidin-3-yl)-1,3-dioxoisoindolin-5-yl)glycyl)piperazin-1-yl)-2-((tetrahydro-2H-pyran-4-yl)amino)benzamide] | > 80
8 | O=C1CCC(N2C(=O)c3ccc(NCCC(=O)N4CCN(c5ccc(C(=O)Nc6n[nH]c7ccc(Cc8cc(F)cc(F)c8)cc67)c(NC6CCOCC6)c5)CC4)cc3C2=O)C(=O)N1 (stereo not drawn) [TR-145, N—(S-(3,5-Difluorobenzyl)-1H-indazol-3-yl)-4-(4-(3-((2-(2,6-dioxopiperidin-3-yl)-1,3-dioxoisoindolin-S-yl)amino)propanoyl)piperazin-1-yl)-2-((tetrahydro-2H-pyran-4-yl)amino)benzamide] | > 80
9 | O=C1CCC(N2C(=O)c3ccc(NCCOCCOCCOCCC(=O)N4CCN(c5ccc(C(=O)Nc6n[nH]c7ccc(Cc8cc(F)cc(F)c8)cc67)c(NC6CCOCC6)c5)CC4)cc3C2=O)C(=O)N1 (stereo not drawn) [TR-146, N-(5-(3,5-Difluorobenzyl)-1H-indazol-3-yl)-4-(4-(3-(2-(2-(2-((2-(2,6-dioxopiperidin-3-yl)-1,3-dioxoisoindolin-5-yl)amino)ethoxy)ethoxy)ethoxy)propanoyl)piperazin-1-yl)-2-((tetrahydro-2/-pyran-4-yl)amino)benzamide] | > 80
10 | O=C(CN1CCN(c2ccc(C(=O)Nc3n[nH]c4ccc(Cc5cc(F)cc(F)c5)cc34)c(NC3CCOCC3)c2)CC1)NCCCCCCNc1cccc2c1C(=O)N(C1CCC(=O)NC1=O)C2=O (stereo not drawn) [TR-147, N—(S-(3,5-Difluorobenzyl)-1H-indazol-3-yl)-4-(4-(2-((6-((2-(2,6-dioxopiperidin-3-yl)-1,3-dioxoisoindolin-4-yl)amino)hexyl)amino)-2-oxoethyl)piperazin-1-yl)-2-((tetrahydro-2H-pyran-4-yl)amino)benzamide] | > 80
11 | O=C(CN1CCN(c2ccc(C(=O)Nc3n[nH]c4ccc(Cc5cc(F)cc(F)c5)cc34)c(NC3CCOCC3)c2)CC1)NCCCCCNc1cccc2c1C(=O)N(C1CCC(=O)NC1=O)C2=O (stereo not drawn) [TR-149, N-(5-(3,5-Difluorobenzyl)-1H-indazol-3-yl)-4-(4-(2-((5-((2-(2,6-dioxopiperidin-3-yl)-1,3-dioxoisoindolin-4-yl)amino)pentyl)amino)-2-oxoethyl)piperazin-1-yl)-2-((tetrahydro-2H-pyran-4-yl)amino)benzamide] | > 80
12 | O=C(CN1CCN(c2ccc(C(=O)Nc3n[nH]c4ccc(Cc5cc(F)cc(F)c5)cc34)c(NC3CCOCC3)c2)CC1)NCCOCCOCCOCCOCCNc1cccc2c1C(=O)N(C1CCC(=O)NC1=O)C2=O (stereo not drawn) [TR-150, N-(5-(3,5-Difluorobenzyl)-1H-indazol-3-yl)-4-(4-(17-((2˜ (2,6-dioxopiperidin-3-yl)-1,3-dioxoisoindolin-4-yl)amino)-2-oxo-6,9,12,15-tetraoxa-3-azaheptadecyl)piperazin-1-yl)-2˜ ((tetrahydro-2H-pyran-4-yl)amino)benzamide] | > 80
13 | O=C(CN1CCN(c2ccc(C(=O)Nc3n[nH]c4ccc(Cc5cc(F)cc(F)c5)cc34)c(NC3CCOCC3)c2)CC1)NCCOCCNc1cccc2c1C(=O)N(C1CCC(=O)NC1=O)C2=O (stereo not drawn) [TR-151, N-(5-(3,5-Difluorobenzyl)-1H-indazol-3-yl)-4-(4-(2-((2-(2-((2-(2,6-dioxopiperidin-3-yl)-1,3-dioxoisoindolin-4-yl)amino)ethoxy)ethyl)amino)-2-oxoethyl)piperazin-1-yl)-2-((tetrahydro-2H-pyran-4-yl)amino)benzamide] | > 80
14 | O=C(CN1CCN(c2ccc(C(=O)Nc3n[nH]c4ccc(Cc5cc(F)cc(F)c5)cc34)c(NC3CCOCC3)c2)CC1)NCCCNc1cccc2c1C(=O)N(C1CCC(=O)NC1=O)C2=O (stereo not drawn) [TR-152, N-(5-(3,5-Difluorobenzyl)-1H-indazol-3-yl)-4-(4-(2-((3-((2-(2,6-dioxopiperidin-3,3-yl)-1,3-dioxoisoindolin-4-yl)amino)propyl)amino)-2-oxocthyl)piperazin-1-yl)-2-((tetrahydro-2H-pyran-4-yl)amino)benzamide] | > 80
15 | O=C(CN1CCN(c2ccc(C(=O)Nc3n[nH]c4ccc(Cc5cc(F)cc(F)c5)cc34)c(NC3CCOCC3)c2)CC1)NCCOCCOCCNc1cccc2c1C(=O)N(C1CCC(=O)NC1=O)C2=O (stereo not drawn) [TR-153, N-(5-(3,5-Difluorobenzyl)-1H-indazol-3-yl)-4-(4-(2-((2-(2-(2-((2-(2,6-dioxopiperidin-3-yl)-1,3-dioxoisoindolin-4-yl)amino)ethoxy)ethoxy)ethyl)amino)-2-oxoethyl)piperazin-1-yl)-2-((tetrahydro-2H-pyran-4-yl)amino)benzamide] | > 80
16 | O=C(CN1CCN(c2ccc(C(=O)Nc3n[nH]c4ccc(Cc5cc(F)cc(F)c5)cc34)c(NC3CCOCC3)c2)CC1)NCCCCNc1cccc2c1C(=O)N(C1CCC(=O)NC1=O)C2=O (stereo not drawn) [TR-155, N-(5-(3,5-Difluorobenzyl)-1H-indazol-3-yl)-4-(4-(2-((4-((2-(2,6-dioxopiperidin-3-yl)-1,3-dioxoisoindolin-4-yl)amino)butyl)amino)-2-oxoethyl)piperazin-1-yl)-2-((tetrahydro-2/-pyran-4-yl)amino)benzamide] | > 80
17 | O=C(CN1CCN(c2ccc(C(=O)Nc3n[nH]c4ccc(Cc5cc(F)cc(F)c5)cc34)c(NC3CCOCC3)c2)CC1)NCCCCNc1ccc2c(c1)C(=O)N(C1CCC(=O)NC1=O)C2=O (stereo not drawn) [TR-156, N-(5-(3,5-Difluorobenzyl)-1H-indazol-3-yl)-4-(4-(2-((4-((2-(2,6-dioxopiperidin-3-yl)-1,3-dioxoisoindolin-S-yl)amino)butyl)amino)-2-oxoethyl)piperazin-1-yl)-2-((tetrahydro-2H-pyran-4-yl)amino)benzamide] | > 80
18 | O=C(CN1CCN(c2ccc(C(=O)Nc3n[nH]c4ccc(Cc5cc(F)cc(F)c5)cc34)c(NC3CCOCC3)c2)CC1)NCCCCCCCNc1ccc2c(c1)C(=O)N(C1CCC(=O)NC1=O)C2=O (stereo not drawn) [TR-157, N-(5-(3,5-Difluorobenzyl)-1H-indazol-3-yl)-4-(4-(2-((7-((2-(2,6-dioxopiperidin-3-yl)-1,3-dioxoisoindolin-5-yl)amino)heptyl)amino)-2-oxoethyl)piperazin-1-yl)-2-((tetrahydro-2H-pyran-4-yl)amino)benzamide] | > 80
